Patent US12606548B2, “Fungicidal oxadiazoles” (FMC CORPORATION, priority 2019, dated 2026)
Marks after values point to notes of the source that are not given here.

Assays:
Assay type in all cases: in vivo
Zymoseptoria tritici = test: Test B: test suspension sprayed on wheat seedlings, inoculated next day with Zymoseptoria tritici (wheat leaf blotch), visual disease rating; settings: for Test B rating (% disease control): relative to the controls
Source text: General protocol for preparing test suspensions for Tests A-C: the test compounds were first dissolved in acetone in an amount equal to 3% of the final volume and then suspended at the desired concentration (in ppm) in acetone and purified water (50/50 mix by volume) containing 250 ppm of the surfactant PEG400 (polyhydric alcohol esters). The resulting test suspensions were then used in Tests A-C.
The test suspension was sprayed to the point of run-off on wheat seedlings. The following day the seedlings were inoculated with a spore suspension of Zymoseptoria tritici (the causal agent of wheat leaf blotch) and incubated in a saturated atmosphere at 24° C., for 48 h, and then moved to a growth chamber at 20° C., for 17 days, after which time visual disease ratings were made.
Results for Tests A-C are given in Table A. In the Table, a rating of 100 indicates 100% disease control and a rating of 0 indicates no disease control (relative to the controls). A dash (-) indicates the compound was not tested. The test suspensions were sprayed at the concentration listed in the column “Rate in ppm”, unless otherwise indicated. An asterisk “*” next to the rating indicates a 250 ppm test suspension was used, a double asterisk “**” next to the rating indicates a 100 ppm test suspension was used, and a triple asterisk “***” next to the rating indicates a 50 ppm test suspension was used.

[1] = system: Puccinia recondita f. sp. tritici; test: Test C: test suspension sprayed on wheat seedlings, inoculated next day with Puccinia recondita f. sp. tritici (wheat leaf rust), visual disease rating; settings: for Test C rating (% disease control): relative to the controls
Source text: General protocol for preparing test suspensions for Tests A-C: the test compounds were first dissolved in acetone in an amount equal to 3% of the final volume and then suspended at the desired concentration (in ppm) in acetone and purified water (50/50 mix by volume) containing 250 ppm of the surfactant PEG400 (polyhydric alcohol esters). The resulting test suspensions were then used in Tests A-C. The test suspension was sprayed to the point of run-off on wheat seedlings. The following day the seedlings were inoculated with a spore suspension of Puccinia recondita f. sp. tritici; (the causal agent of wheat leaf rust) and incubated in a saturated atmosphere at 20° C., for 24 h, and then moved to a growth chamber at 20° C., for 6 days, after which time visual disease ratings were made. […] A dash (-) indicates the compound was not tested. The test suspensions were sprayed at the concentration listed in the column “Rate in ppm”, unless otherwise indicated.

Phakopsora pachyrhizi = test: Test A: test suspension sprayed on soybean seedlings, inoculated next day with Phakopsora pachyrhizi (Asian soybean rust), visual disease rating; settings: for Test A rating (% disease control): relative to the controls
Source text: General protocol for preparing test suspensions for Tests A-C: the test compounds were first dissolved in acetone in an amount equal to 3% of the final volume and then suspended at the desired concentration (in ppm) in acetone and purified water (50/50 mix by volume) containing 250 ppm of the surfactant PEG400 (polyhydric alcohol esters). The resulting test suspensions were then used in Tests A-C. The test suspension was sprayed to the point of run-off on soybean seedlings. The following day the seedlings were inoculated with a spore suspension of Phakopsora pachyrhizi (the causal agent of Asian soybean rust) and incubated in a saturated atmosphere at 22° C., for 24 h and then moved to a growth chamber at 22° C., for 8 days, after which time visual disease ratings were made. […] A dash (-) indicates the compound was not tested. The test suspensions were sprayed at the concentration listed in the column “Rate in ppm”, unless otherwise indicated.

[2] = 100 ppm test suspension (double asterisk **)

Compound	Test B rating (% disease control) (Zymoseptoria tritici; 250 ppm test suspension)	Test C rating (% disease control) ([1]; Rate 10 ppm test suspension)	Test A rating (% disease control) (Phakopsora pachyrhizi; Rate 10 ppm test suspension)	also measured
O=C(NCCC(F)(F)F)c1csc(COc2ccc(-c3noc(C(F)(F)F)n3)cc2)n1 [compound 472]	22* %	0%	77%	–
O=C(NCC(F)(F)F)c1coc(COc2ccc(-c3noc(C(F)(F)F)n3)cc2)n1 [compound 465]	0* %	80%	100%	–
FC(F)(F)c1nc(-c2ccc(Cc3ccccc3)cc2)no1 [compound 451]	8* %	0%	99%	–
N#CCNC(=O)c1csc(Cc2ccc(-c3noc(C(F)(F)F)n3)cc2)n1 [compound 393]	94* %	100%	100%	–
O=C(c1csc(Cc2ccc(-c3noc(C(F)(F)F)n3)cc2)n1)N1CCOCC1 [compound 487]	–	100%	100%	Test B rating (% disease control) (Zymoseptoria tritici; 100 ppm test suspension (double asterisk)): 98** %
CC1(C)OCC(COC(=O)c2cnn(Cc3ccc(-c4noc(C(F)(F)F)n4)cc3)c2)O1 (stereo not drawn) [compound 496]	48* %	0%	100%	–
CN(C)C(=O)C1=NOC(CN2CCC(c3noc(C(F)(F)F)n3)CC2)C1 (stereo not drawn) [compound 426]	9* %	–	–	Test C rating (% disease control) ([1]; Rate 250 ppm test suspension): 0%; Test A rating (% disease control) (Phakopsora pachyrhizi; Rate 250 ppm test suspension): 0%
CCNC(=O)c1csc(Cc2ccc(-c3noc(C(F)(F)F)n3)cc2)n1 [compound 488]	99* %	100%	100%	–
1-[[4-[5-(trifluoromethyl)-1,2,4-oxadiazol-3-yl]phenyl]methyl]-2(1H)-quinoxalinone [Compound 158]	–	–	–	Test B disease control rating (Zymoseptoria tritici; 250 ppm test suspension): 0%; Test C disease control rating ([1]; 250 ppm test suspension): 100%; Test A disease control rating (Phakopsora pachyrhizi; 250 ppm test suspension): 100%
ON=Cc1cnn(Cc2ccc(-c3noc(C(F)(F)F)n3)cc2)c1 [compound 20]	–	–	–	Test B disease control rating (Zymoseptoria tritici; 250 ppm test suspension): 99%; Test C disease control rating ([1]; 250 ppm test suspension): 100%; Test A disease control rating (Phakopsora pachyrhizi; 250 ppm test suspension): 100%
O=C(NCC(F)(F)F)c1csc(COc2ccc(-c3noc(C(F)(F)F)n3)cc2)n1 [compound 470]	0* %	94%	100%	–
α-(phenylamino)-4-[5-(trifluoromethyl)-1,2,4-oxadiazol-3-yl]benzeneacetonitrile [Compound 13]	–	–	–	Test B disease control rating (Zymoseptoria tritici; 250 ppm test suspension): 86%; Test C disease control rating ([1]; 250 ppm test suspension): 100%; Test A disease control rating (Phakopsora pachyrhizi; 250 ppm test suspension): 100%
N#CCOC(=O)c1cnn(Cc2ccc(-c3noc(C(F)(F)F)n3)cc2)c1 [compound 57]	–	–	–	Test B disease control rating (Zymoseptoria tritici; [2]): 99** %; Test C disease control rating ([1]; 10 ppm test suspension): 100%; Test A disease control rating (Phakopsora pachyrhizi; 10 ppm test suspension): 100%
4,5-dihydro-2-[[4-[5-(trifluoromethyl)-1,2,4-oxadiazol-3-yl]phenyl]methyl]-4-oxazolecarboxamide [Compound 75]	–	–	–	Test B disease control rating (Zymoseptoria tritici; 250 ppm test suspension): 98%; Test C disease control rating ([1]; 250 ppm test suspension): 100%; Test A disease control rating (Phakopsora pachyrhizi; 250 ppm test suspension): 100%
COC(=O)c1csc(Cc2ccc(-c3noc(C(F)(F)F)n3)cc2)c1 [Compound 455]	66* %	0%	100%	–
CCCOC(=O)c1cnn(Cc2ccc(-c3noc(C(F)(F)F)n3)s2)c1 [compound 198]	–	–	–	Test B disease control rating (Zymoseptoria tritici; [2]): 94** %; Test C disease control rating ([1]; 10 ppm test suspension): 99%; Test A disease control rating (Phakopsora pachyrhizi; 10 ppm test suspension): 100%
CCOC(=O)c1cccc(Cc2ccc(-c3noc(C(F)(F)F)n3)cc2)c1 [Compound 454]	47* %	0%	100%	–
COCC(COC)NC(=O)c1csc(Cc2ccc(-c3noc(C(F)(F)F)n3)cc2)n1 [compound 489]	92* %	99%	100%	–
O=C(NCCn1cccn1)c1coc(COc2ccc(-c3noc(C(F)(F)F)n3)cc2)n1 [compound 466]	3* %	55%	100%	–
O=C(NC1CCC(F)(F)CC1)c1coc(Cc2ccc(-c3noc(C(F)(F)F)n3)cc2)n1 [compound 395]	0* %	97%	95%	–
O=C(NCCC(F)(F)F)c1coc(COc2ccc(-c3noc(C(F)(F)F)n3)cc2)n1 [compound 467]	6* %	68%	97%	–
COCCNC(=O)c1coc(COc2ccc(-c3noc(C(F)(F)F)n3)cc2)n1 [compound 464]	94* %	23%	79%	–
O=C(NCC(F)(F)F)c1csc(Cc2ccc(-c3noc(C(F)(F)F)n3)cc2)n1 [compound 463]	65* %	100%	100%	–
O=C(NCCF)c1coc(Cc2ccc(-c3noc(C(F)(F)F)n3)cc2)n1 [compound 400]	99* %	100%	100%	–
CN(C)C(=O)C1=NOC(C)(Cn2cc(-c3noc(C(F)(F)F)n3)cn2)C1 (racemic) [compound 306]	–	–	–	Test B disease control rating (Zymoseptoria tritici; 250 ppm test suspension): 10* %; Test C disease control rating ([1]; 50 ppm test suspension): 0%; Test A disease control rating (Phakopsora pachyrhizi; 50 ppm test suspension): 0%
CCOC(=O)c1ccc(Cc2ccc(-c3noc(C(F)(F)F)n3)cc2)cc1 [compound 453]	50* %	0%	92%	–
COC(=O)c1cnc(Oc2ccc(-c3noc(C(F)(F)F)n3)cc2)s1 [compound 452]	59* %	0%	81%	–
N#CCNC(=O)c1csc(COc2ccc(-c3noc(C(F)(F)F)n3)cc2)n1 [compound 473]	28* %	89%	94%	–
N#CCNC(=O)c1coc(COc2ccc(-c3noc(C(F)(F)F)n3)cc2)n1 [compound 468]	22* %	0%	84%	–
O=C(NCCOC(F)(F)F)c1coc(Cc2ccc(-c3noc(C(F)(F)F)n3)cc2)n1 [compound 401]	77* %	99%	100%	–
